Source: patent publication US12590062B2, “PD-1/PD-L1 inhibitors” (Gilead Sciences, Inc., priority 2017, dated 2026)

Experiments:
PD-1/PD-L1 interaction = target: T1, PD-1/PD-L1 interaction (Homo sapiens, UniProt Q9NZQ7); assay: PD-1/PD-L1 NFAT reporter co-culture assay; format: cell-based; details: Jurkat PD-1 NFAT-luciferase cells co-cultured with aAPC-PD-L1 CHO cells, 6 hrs at 37° C.; read-out: EC50 NFAT Luciferase
T1 construct: expressed in transfected cells; host or cells: CHO cells (aAPC-PD-L1) co-cultured with Jurkat cells overexpressing PD-1 and an NFAT-luciferase reporter
T1 sequence (Q9NZQ7 19-290): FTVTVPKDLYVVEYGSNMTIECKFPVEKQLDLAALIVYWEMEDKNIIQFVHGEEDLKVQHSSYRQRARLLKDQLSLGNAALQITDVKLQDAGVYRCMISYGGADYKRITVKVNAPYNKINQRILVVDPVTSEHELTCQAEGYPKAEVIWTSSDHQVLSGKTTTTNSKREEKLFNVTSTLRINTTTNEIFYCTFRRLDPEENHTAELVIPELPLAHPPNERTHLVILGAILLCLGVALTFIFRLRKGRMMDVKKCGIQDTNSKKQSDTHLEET
Method in brief: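 Luminescence (ONE-Glo) after 6 h, 37 °C co-culture reports NFAT-luciferase in PD-1 Jurkat cells, which PD-1/PD-L1 engagement suppresses. Partner cells: CHO expressing anti-CD3 and PD-L1. EC50 from four-parameter dose-response fit.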

PD-1/PD-L1 = PD-1/PD-L1 (Homo sapiens, UniProt Q9NZQ7); assay: PD-1/PD-L1 biochemical protein-protein interaction assay (ALPHA); format: binding; details: 0.3 nM His tagged PD-L1, 2.5 nM biotinylated Fc-PD-1, 60 minutes at 25° C., read-out: IC50 PD-L1-PD-1 Alpha IC50-mono PD-L1-fcP-D1
Sequence of PD-1/PD-L1 (Q9NZQ7 19-238 limits assumed): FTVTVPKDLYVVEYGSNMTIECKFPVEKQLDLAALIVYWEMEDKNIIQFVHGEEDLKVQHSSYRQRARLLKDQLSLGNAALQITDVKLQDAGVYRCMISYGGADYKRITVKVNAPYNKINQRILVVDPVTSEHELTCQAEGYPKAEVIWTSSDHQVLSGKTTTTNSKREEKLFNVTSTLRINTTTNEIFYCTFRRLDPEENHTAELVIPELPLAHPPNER
Method in brief: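 Compound blockade of the PD-1/PD-L1 extracellular-domain interaction measured as reduced ALPHA signal after 60 min at 25 °C, pH 7.4 Hepes buffer with EDTA, Tween 20 and BSA. Final proteins: His-tagged PD-L1 0.3 nM, biotinylated Fc-PD-1 2.5 nM; four-parameter curve fit gives IC50.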

PD-L1 = target: T2, PD-L1 (Homo sapiens, UniProt Q9NZQ7); assay: PD-L1/PD-L1 dimerization biochemical protein-protein interaction assay (ALPHA); format: binding; details: compound-induced PD-L1 dimerization, head prints '1 nM' (0.5 nM His-tagged PD-L1 and 0.5 nM FLAG-tagged PD-L1), read-out: AC50 PDL1 Dimer Alpha 1 nM
T2 construct: determine if they can specifically dimerize the extracellular domains of PD-L1
T2 sequence (Q9NZQ7 19-238 limits assumed): as above
T2 sequence (Q9NZQ7 19-238 limits assumed): as above
Method in brief: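 After 2 h at 25 °C with compound, His- and FLAG-tagged PD-L1 ECDs (each 0.5 nM final; 25 mM Hepes pH 7.4, 150 mM NaCl) were detected by sequential anti-His acceptor and anti-FLAG donor bead incubations. Dose-response curves fitted to four-parameter equation for AC50.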

EC50 (PD-1/PD-L1 interaction) | IC50 (PD-1/PD-L1) | AC50 (PD-L1) | SMILES
≥ 50000 nM | 2.45 nM | 729 nM | COc1nc(-c2cccc(-c3cccc(-c4ccc5c(c4)CCC(N)C5)c3Cl)c2Cl)ccc1CN1CC2(CCC(=O)N2)C1 (stereo not drawn) [Example 612]
484 nM | 1.38 nM | 158 nM | COc1nc(-c2cccc(-c3cccc(-c4ccc5c(c4)C[C@@H](N)C5)c3Cl)c2Cl)ccc1CN1CC2(CCC(=O)N2)C1 [Example 613]
≥ 50000 nM | 11.5 nM | ≥ 10000 nM | COc1nc(-c2cccc(-c3cccc(-c4ccc5ncc(CN6CC7(CCC(=O)N7)C6)n5c4)c3Cl)c2Cl)ccc1CN1CC2(CCC(=O)N2)C1 [Example 614]
≥ 50000 nM | 7.88 nM | ≥ 10000 nM | COc1nc(-c2cccc(-c3cccc(-c4ccc5ncc(CN6CC(O)C6)n5c4)c3Cl)c2Cl)ccc1CN1CC(O)C1 [Example 615]
≥ 50000 nM | 0.295 nM | 156 nM | COc1nc(-c2cccc(-c3cccc(-c4ccn5cc(CN6CC(O)C6)nc5c4)c3Cl)c2Cl)ccc1CN1CC(O)C1 [Example 616]
≥ 50000 nM | 0.17 nM | 265 nM | COc1nc(-c2cccc(-c3cccc(-c4ccn5cc(CN(C)C)nc5c4)c3Cl)c2Cl)ccc1CN(C)C [Example 617]
≥ 50000 nM | 0.224 nM | 389 nM | COc1nc(-c2cccc(-c3cccc(-c4ccn5cc(CN6CC7(CCC(=O)N7)C6)nc5c4)c3Cl)c2Cl)ccc1CN1CC2(CCC(=O)N2)C1 [Example 618]
187 nM | 0.159 nM | 118 nM | COc1nc(-c2cccc(-c3cccc(-c4ccn5cc(CNC[C@@H]6CCC(=O)N6)nc5c4)c3Cl)c2Cl)ccc1CNC[C@@H]1CCC(=O)N1 [Example 619]
≥ 50000 nM | 2.84 nM | ≥ 10000 nM | COc1nc(-c2cccc(-c3cccc(-c4ccc5ncc(CNCCO)n5c4)c3Cl)c2Cl)ccc1CNCCO [Example 620]
≥ 50000 nM | 1.04 nM | ≥ 10000 nM | COc1nc(-c2cccc(-c3cccc(-c4ccc5ncc(CNC[C@@H](O)CC(=O)O)n5c4)c3Cl)c2Cl)ccc1CNC[C@@H](O)CC(=O)O [Example 621]
≥ 50000 nM | 0.567 nM | ≥ 10000 nM | COc1nc(-c2cccc(-c3cccc(-c4ccc5ncc(CNC[C@@H]6CCC(=O)N6)n5c4)c3Cl)c2Cl)ccc1CNC[C@@H]1CCC(=O)N1 [Example 622]
≥ 50000 nM | 5.2 nM | ≥ 10000 nM | COc1nc(-c2cccc(-c3cccc(-c4ccc5c(c4)[C@H](N)CC5)c3Cl)c2Cl)ccc1C1=NCCN1 [Example 623]
≥ 50000 nM | 0.109 nM | 20.9 nM | COc1nc(-c2cccc(-c3cccc(-c4ccc5c(c4)CCC5N)c3Cl)c2Cl)ccc1C1=NCCN1 (stereo not drawn) [Example 624]
≥ 50000 nM | 0.238 nM | 98.2 nM | COc1nc(-c2cccc(-c3cccc(-c4ccc5c(c4)C[C@@H](N)C5)c3Cl)c2Cl)ccc1C1=NCCN1 [Example 625]
≥ 50000 nM | 3.08 nM | ≥ 10000 nM | O=C1CC[C@@H](CNCc2ccc(-c3cccc(-c4cccc(-c5ccc(CNC[C@@H]6CCC(=O)N6)c(N6CCOCC6)c5)c4Cl)c3Cl)cc2N2CCOCC2)N1 [Example 626]
≥ 50000 nM | 2.44 nM | 480 nM | COc1cc(-c2cccc(-c3cccc(-c4ccc(CNCCO)c(OC)c4)c3C)c2C)ccc1CNCCO [Example 627]
251 nM | 0.064 nM | ≥ 10000 nM | COc1cc(-c2cccc(-c3cccc(-c4cnc(C5=NCCN5)c(OC)c4)c3Cl)c2Cl)cnc1CNC[C@@H](O)CC(=O)O [Example 629]
165 nM | 0.064 nM | ≥ 10000 nM | COc1cc(-c2cccc(-c3cccc(-c4cnc(C5=NCCN5)c(OC)c4)c3Cl)c2Cl)cnc1C1=NCCN1 [Example 630]
≥ 50000 nM | 0.13 nM | 441 nM | COc1nc(-c2cccc(-c3cccc(N4Cc5cc(CN6CC7(CCC(=O)N7)C6)ccc5C4=O)c3Cl)c2Cl)ccc1CN1CC2(CCC(=O)N2)C1 [Example 631]
